Assay [1] has as its target T1, AR (AR-full length) in LNCaP cells (Homo sapiens, UniProt P10275, T878A).
T1 construct: the prostate cancer cell line LNCaP (expressing AR-full length); endogenous in cells; host or cells: LNCaP
The assay is described as follows: LNCaP Androgen Receptor Imaging Assay (immunofluorescence of endogenous nuclear AR). It is filed as cell-based. To be noted: 24 h incubation; for DC50: concentration giving 50% of maximum degradation of AR per curve fit, single experiment or average of two or more; for Dmax: LNCaP, maximum degradation observed, normalized as % of positive control (prior art AR PROTAC at 3 μM). An outline of the steps: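 Endogenous nuclear AR level was imaged by immunofluorescence after 24 h compound exposure (12-point dose response, 0.3% DMSO, 37° C./5% CO2) in LNCaP cells. Data were expressed as % of a 3 μM prior-art AR PROTAC control and fitted (bell fit where a hook appeared) to give DC50 and maximum degradation Dmax.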

For assay [2], the target named is T2, AR (L702H) in LNCaP cells (Homo sapiens, UniProt P10275, L702H/T878A).
T2 construct: engineered to introduce the mutation L702H into the AR gene using CRISPR/Cas9; endogenous in cells; host or cells: LNCaP cells edited by CRISPR/Cas9 at the AR gene
T2 sequence (P10275 whole entry L702H/T878A): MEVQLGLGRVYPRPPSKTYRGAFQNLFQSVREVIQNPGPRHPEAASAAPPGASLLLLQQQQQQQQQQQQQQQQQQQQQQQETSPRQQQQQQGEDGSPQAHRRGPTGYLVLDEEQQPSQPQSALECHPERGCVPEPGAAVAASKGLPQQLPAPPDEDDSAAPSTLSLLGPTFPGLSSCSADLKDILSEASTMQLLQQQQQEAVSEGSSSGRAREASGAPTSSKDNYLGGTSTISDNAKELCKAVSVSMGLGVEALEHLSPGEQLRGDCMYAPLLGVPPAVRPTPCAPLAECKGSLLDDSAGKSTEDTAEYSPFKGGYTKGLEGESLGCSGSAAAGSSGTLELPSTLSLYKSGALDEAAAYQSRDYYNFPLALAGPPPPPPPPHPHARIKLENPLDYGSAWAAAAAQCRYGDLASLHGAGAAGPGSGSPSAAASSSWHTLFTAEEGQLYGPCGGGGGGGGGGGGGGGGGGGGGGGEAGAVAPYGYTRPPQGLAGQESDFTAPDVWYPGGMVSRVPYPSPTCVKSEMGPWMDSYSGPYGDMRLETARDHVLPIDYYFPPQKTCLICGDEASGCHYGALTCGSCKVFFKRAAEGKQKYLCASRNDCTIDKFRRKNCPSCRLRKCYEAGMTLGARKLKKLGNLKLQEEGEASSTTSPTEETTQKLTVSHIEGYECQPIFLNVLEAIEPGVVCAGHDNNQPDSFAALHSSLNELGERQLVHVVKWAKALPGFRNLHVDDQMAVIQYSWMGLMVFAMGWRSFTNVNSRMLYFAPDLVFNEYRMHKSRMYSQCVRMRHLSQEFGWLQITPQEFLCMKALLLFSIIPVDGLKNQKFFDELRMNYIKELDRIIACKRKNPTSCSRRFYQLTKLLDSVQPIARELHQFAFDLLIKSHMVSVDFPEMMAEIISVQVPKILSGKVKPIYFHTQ
T2 sequence (Q96SW2 whole entry partner): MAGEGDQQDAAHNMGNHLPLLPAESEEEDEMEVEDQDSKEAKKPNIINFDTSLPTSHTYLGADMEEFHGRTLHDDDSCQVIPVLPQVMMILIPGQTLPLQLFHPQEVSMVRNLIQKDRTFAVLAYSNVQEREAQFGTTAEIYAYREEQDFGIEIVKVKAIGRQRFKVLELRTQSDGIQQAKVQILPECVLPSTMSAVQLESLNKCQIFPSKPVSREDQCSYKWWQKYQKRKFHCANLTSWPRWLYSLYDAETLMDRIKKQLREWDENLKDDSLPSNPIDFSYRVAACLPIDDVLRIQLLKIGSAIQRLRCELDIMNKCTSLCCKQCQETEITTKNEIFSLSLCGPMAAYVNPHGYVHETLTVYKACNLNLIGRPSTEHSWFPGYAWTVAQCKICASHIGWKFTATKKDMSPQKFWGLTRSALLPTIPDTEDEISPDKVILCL
The assay can be described thus: LNCaP Androgen Receptor L702H Imaging Assay (LNCaP cells engineered by CRISPR/Cas9). It is filed as cell-based. To be noted: LNCaP cells with AR L702H mutation, 24 h incubation; for DC50: concentration giving 50% of maximum degradation of AR (L702H) per curve fit; for Dmax: LNCaP, maximum degradation observed, normalized as % of positive control. An outline of the steps: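 AR (L702H) degradation, expressed as DC50 and Dmax from curve fits normalized to a positive degrader control, was measured by high-content imaging of anti-AR immunofluorescence. The engineered LNCaP line was dosed over 12 concentrations for 24 h, 0.3% DMSO final, before PFA fixation.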

T1 sequence (P10275 whole entry T878A): as the sequence (P10275 whole entry L702H/T878A) above, with H702L counted along it
T1 sequence (Q96SW2 whole entry partner): as the sequence (Q96SW2 whole entry partner) above

With `N#Cc1c[nH]c2c(N3CCC(c4cccc(N5CCC(CN6CCN(c7ccc8c(c7)CN(C7CCC(=O)NC7=O)C8=O)CC6)CC5)c4)CC3)ccc(Cl)c12` (stereo not drawn) [Example 113, 4-Chloro-7-(4-{3-[4-({4-[2-(2,6-dioxopiperidin-3-yl)-1-oxo-2,3-dihydro-1H-isoindol-5-yl]piperazin-1-yl}methyl)piperidin-1-yl]phenyl}piperidin-1-yl)-1H-indole-3-carbonitrile], the DC50 came out at 19 nM in assay [1] and 36 nM in assay [2]. In addition, the Dmax in assay [1] was 92%; in assay [2] it was 76%.

On to `Cc1cc(N2CCC(CN3CCC(n4ccc5c(N6CCC(=O)NC6=O)cccc54)CC3)CC2)cc(F)c1C(=O)NC1CCN(c2ccc(Cl)c3c(C#N)c[nH]c23)CC1` [Example 163, N-[1-(4-Chloro-3-cyano-1H-indol-7-yl)piperidin-4-yl]-4-[4-({4-[4-(2,4-dioxo-1,3-diazinan-1-yl)-1H-indol-1-yl]piperidin-1-yl}methyl)piperidin-1-yl]-2-fluoro-6-methylbenzamide], for which, in assay [1], the DC50 was determined as 1 nM and the Dmax worked out at 107%. In assay [2], the DC50 came out at 2 nM and the Dmax amounted to 113%.

Regarding `Cc1ccc(N2CCC(c3ccc(N4CCC(CN5CCC(n6ccc7c(N8CCC(=O)NC8=O)cccc76)CC5)CC4)cc3F)CC2)c2[nH]cc(C#N)c12` [Example 42, 7-(4-{4-[4-({4-[4-(2,4-Dioxo-1,3-diazinan-1-yl)-1H-indol-1-yl]piperidin-1-yl}methyl)piperidin-1-yl]-2-fluorophenyl}piperidin-1-yl)-4-methyl-1H-indole-3-carbonitrile], the DC50 turned out to be 29 nM in assay [1] and 62 nM in assay [2]. The Dmax turned out to be 101% in assay [1] and 107% in assay [2].

`N#Cc1c[nH]c2c(N3CCC(c4ccc(N5CCC(CN6CCN(c7cc8c(cc7F)C(=O)N(C7CCC(=O)NC7=O)C8=O)CC6)CC5)cc4)CC3)ccc(F)c12` (stereo not drawn) [Example 52, 7-(4-{4-[4-({4-[2-(2,6-Dioxopiperidin-3-yl)-6-fluoro-1,3-dioxo-2,3-dihydro-1H-isoindol-5-yl]piperazin-1-yl}methyl)piperidin-1-yl]phenyl}piperidin-1-yl)-4-fluoro-1H-indole-3-carbonitrile]: the DC50 came out at 62 nM in assay [1] and 52 nM in assay [2]. Moreover, the Dmax worked out at 93% in assay [1] and 97% in assay [2].

Turning to `N#Cc1c[nH]c2c(N3CCC(c4ccc(N5CC6(CCC(CN7CCN(c8ccc9c(c8)CN(C8CCC(=O)NC8=O)C9=O)CC7)CC6)C5)cc4)CC3)ccc(Cl)c12` (stereo not drawn) [Example 129, 4-Chloro-7-(4-{4-[7-({4-[2-(2,6-dioxopiperidin-3-yl)-1-oxo-2,3-dihydro-1H-isoindol-5-yl]piperazin-1-yl}methyl)-2-azaspiro[3.5]nonan-2-yl]phenyl}piperidin-1-yl)-1H-indole-3-carbonitrile], the DC50 in assay [1] is 20 nM; in assay [2], 29 nM. Moreover, the figures for the Dmax in assay [1] and in assay [2] were 95% and 99%, respectively.

As to `N#Cc1c[nH]c2c(C3CCCN(c4ccc(C5CCN(CC6CCN(c7ccc8c(c7)CN(C7CCC(=O)NC7=O)C8=O)CC6)CC5)cc4)C3)ccc(Cl)c12` (single isomer, unassigned) [Example 96, 4-Chloro-7-[(3R*)-1-{4-[1-({1-[2-(2,6-dioxopiperidin-3-yl)-1-oxo-2,3-dihydro-1H-isoindol-5-yl]piperidin-4-yl}methyl)piperidin-4-yl]phenyl}piperidin-3-yl]-1H-indole-3-carbonitrile], the values for the DC50 in assay [1] and in assay [2] were 31 nM and 12 nM, respectively. The Dmax came to 54% in assay [1] and 95% in assay [2].

Consider `N#Cc1c[nH]c2c(N3CCC(c4ccc(N5CCC(N6CCN(c7ccc8c(c7)CN(C7CCC(=O)NC7=O)C8=O)CC6)CC5)cc4)CC3)ccc(Cl)c12` (stereo not drawn) [Example 110, 4-Chloro-7-{4-[4-(4-{4-[2-(2,6-dioxopiperidin-3-yl)-1-oxo-2,3-dihydro-1H-isoindol-5-yl]piperazin-1-yl}piperidin-1-yl)phenyl]piperidin-1-yl}-1H-indole-3-carbonitrile], for which the half-maximal degradation concentration (DC50) in assay [1] is 6 nM; in assay [2] it was 5 nM. The values for the Dmax in assay [1] and in assay [2] were 88% and 97%, respectively.

Take `N#Cc1c[nH]c2c(N3CCC(NC(=O)c4ccc(N5CCC(CN6CCC(n7ccc8c(N9CCC(=O)NC9=O)cccc87)CC6)CC5)cn4)CC3)ccc(Cl)c12` [Example 167, N-[1-(4-Chloro-3-cyano-1H-indol-7-yl)piperidin-4-yl]-5-[4-({4-[4-(2,4-dioxo-1,3-diazinan-1-yl)-1H-indol-1-yl]piperidin-1-yl}methyl)piperidin-1-yl]pyridine-2-carboxamide]: in assay [1], half-maximal degradation (DC50) was put at 1 nM and the Dmax was found to be 101%. Also, in assay [2], the DC50 came out at 2 nM and the Dmax is 100%.

`Cn1c(C2CCN(CC3CCN(c4ccc([C@@H]5CCCN(c6ccc(Cl)c7c(C#N)n[nH]c67)C5)cc4)CC3)CC2)cc2cc(F)c(N3CCC(=O)NC3=O)cc21` [Example 139, 4-Chloro-7-[(3S)-3-{4-[4-({4-[6-(2,4-dioxo-1,3-diazinan-1-yl)-5-fluoro-1-methyl-1H-indol-2-yl]piperidin-1-yl}methyl)piperidin-1-yl]phenyl}piperidin-1-yl]-1H-indazole-3-carbonitrile]: the values for the DC50 in assay [1] and in assay [2] were 10 nM and 16 nM, respectively. Moreover, the Dmax in assay [1] is 105%; in assay [2], 107%.

For the compound `N#Cc1c[nH]c2c(N3CCC[C@@H](c4ccc(N5CC6(CCC(CN7CCC(n8ccc9c(N%10CCC(=O)NC%10=O)cccc98)CC7)CC6)C5)cc4)C3)ccc(Cl)c12` [Example 131, 4-Chloro-7-[(3S)-3-{4-[7-({4-[4-(2,4-dioxo-1,3-diazinan-1-yl)-1H-indol-1-yl]piperidin-1-yl}methyl)-2-azaspiro[3.5]nonan-2-yl]phenyl}piperidin-1-yl]-1H-indole-3-carbonitrile], the DC50 in assay [1] stood at 17 nM; in assay [2], 41 nM. The values for the Dmax in assay [1] and in assay [2] were 105% and 94%, respectively.

As to `N#Cc1n[nH]c2c(N3CCC[C@@H](c4ccc(N5CCC(CN6CCC(n7ccc8c(N9CCC(=O)NC9=O)cccc87)CC6)CC5)cc4)C3)ccc(Cl)c12` [Example 9], in assay [1], the DC50 is 7 nM and the Dmax amounted to 105%. Moreover, in assay [2], the DC50 was 9 nM and the Dmax was 106%.

For `COc1cc(N2CCN(CCCCOc3ccc(C4CCN(c5ccc(C)c6c(C#N)c[nH]c56)CC4)cc3)CC2)cc2c1C(=O)N(C1CCC(=O)NC1=O)C2=O` (stereo not drawn) [Example 48, 7-{4-[4-(4-{4-[2-(2,6-Dioxopiperidin-3-yl)-7-methoxy-1,3-dioxo-2,3-dihydro-1H-isoindol-5-yl]piperazin-1-yl}butoxy)phenyl]piperidin-1-yl}-4-methyl-1H-indole-3-carbonitrile], the DC50 worked out at 57 nM in assay [1] and 359 nM in assay [2]. Also, the Dmax in assay [1] was 97%; in assay [2] it was 99%.

By DC50 is commonly meant the midpoint of the concentration-degradation curve. For orientation: Dmax means the greatest extent of degradation seen.
